This note sets out measurements from ChEMBL document CHEMBL1138145, “Enhanced FTase activity achieved via piperazine interaction with catalytic zinc” (Bioorg Med Chem Lett, 2006).

Each structure is given as a SMILES string.

In series [1] the target is T1, Protein farnesyltransferase (Homo sapiens, UniProt P49354+P49356). The series is described as follows: Inhibition of farnesyltransferase activity. Type of series: protein-complex assay.
The target in series [2] is T1, Protein farnesyltransferase. Kind of series: Inhibition of farnesyltransferase activity at 0.2 uM. Format: protein-complex assay.
Series [3] has the same target. The series is described as follows: Inhibition of farnesyltransferase activity in COS7 cells transfected with Ras gene in soft agar proliferation. Format: functional, cell-based, Chlorocebus aethiops, COS-7.
Series [4] can be described thus: AUC in rat at 10 mg/kg, po. Format: ADME, organism-based. The arrangement: dose 10 mg/kg, route oral. The conditions noted are these: plasma.

Broadly, the IC50 is the concentration at which inhibition is half-maximal. Read a low IC50 as greater potency in that assay. As for `CS(=O)(=O)N1CCC([C@H]2c3ccc(Cl)cc3C=C(N3CCNCC3)c3cccnc32)CC1`, half-maximal inhibition in series [1] (IC50) was put at 150 nM. This counts as sub-micromolar.

Take `CS(=O)(=O)N1CCC([C@@H]2c3ccc(Cl)cc3C=C(N3CCNCC3)c3cccnc32)CC1`: half-maximal inhibition in series [1] (IC50) was put at 76 nM. Compared with the last compound, the IC50 is about 2-fold lower.

Usually inhibition stands for how much of the control response was suppressed. Higher therefore signals a response far below the control. Take `CS(=O)(=O)N1CCC([C@H]2c3ccc(Cl)cc3C(N3CCNCC3)=Cc3cccnc32)CC1`: the inhibition in series [2] came to 29%.

As a reminder, the AUC is concentration integrated over time. The low end stands for low exposure, the high end for high exposure. For the compound `CS(=O)(=O)N1CCC([C@@H]2c3ccc(Cl)cc3C(N3CCNCC3)=Cc3cccnc32)CC1`, the IC50 is 72 nM in series [3] and 7 nM in series [1]. The compound further had an AUC in series [4] of 4 µM·h.
